This is an account of results in patent US20240108674A1, “BERBERIS EXTRACT NANO-FORMULATION AND PROCESS OF PREPARATION THEREOF” (priority 2021, published 2024).

This test has as its system RBC membrane. Put plainly: In-vitro anti-inflammatory activity, RBC membrane protection. It counts as cell-based. As to conditions: concentration of 5 mg/mL.

`O=C(O)Cc1ccccc1Nc1c(Cl)cccc1Cl` [diclofenac sodium]: the RBC membrane protection turned out to be 76%.
`C[C@]12C=CC(=O)C=C1CC[C@@H]1[C@@H]2[C@@H](O)C[C@@]2(C)[C@H]1CC[C@]2(O)C(=O)CO` [prednisolone] showed an RBC membrane protection of 73%.
